Data as given in PubChem BioAssay (NCI).
Where “and” joins values, the source holds several entries; their conditions need not be identical. Equal entries are not always repeated.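 All cell lines were grown in 96-well plates and treated with compound for 48 hours. Abbreviation: GI50, concentration required for 50% inhibition of growth. Definition used: TGI = concentration required for complete inhibition of growth.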

Experiments:
Assay in all cases: growth of human tumour cells (NCI), 48 h
SF-268 CNS = system: SF-268 CNS
SW-620 colon = system: SW-620 colon
HCC-2998 colon = system: HCC-2998 colon
HL-60(TB) leukemia = system: HL-60(TB) leukemia
CAKI-1 renal = system: CAKI-1 renal
NCI-H23 lung = system: NCI-H23 lung
786-0 renal = system: 786-0 renal
MDA-MB-435 = system: MDA-MB-435
UACC-257 melanoma = system: UACC-257 melanoma
BT-549 breast = system: BT-549 breast

Row | SMILES | TGI (SF-268 CNS) | TGI (SW-620 colon) [µM] | TGI (HCC-2998 colon) [µM] | TGI (HL-60(TB) leukemia) [µM] | TGI (CAKI-1 renal) | TGI (NCI-H23 lung) | TGI (786-0 renal) | GI50 (SF-268 CNS) [µM] | GI50 (SW-620 colon) [µM] | GI50 (HCC-2998 colon) [µM] | GI50 (HL-60(TB) leukemia) [µM] | GI50 (CAKI-1 renal) [µM] | GI50 (NCI-H23 lung) [µM] | GI50 (786-0 renal) [µM] | GI50 (MDA-MB-435) [µM] | TGI (MDA-MB-435) | GI50 (UACC-257 melanoma) [µM] | TGI (UACC-257 melanoma) | GI50 (BT-549 breast) [µM] | TGI (BT-549 breast)
1 | CCOC(=O)C1(Cc2ccccc2)CCCCCN1 (stereo not drawn) | > 100 µM | > 100 | > 100 | > 100 | > 100 µM | > 100 µM | > 100 µM | – | – | – | – | – | – | – | – | – | – | – | – | –
2 | COc1cc(/C=C2\CC3C4CC=C5C[C@@H](OC(C)=O)CC[C@]5(C)C4CC[C@]3(C)C2=O)ccc1OCCCn1ccnc1 (stereo partly drawn) | 21.5 µM | 23.3 | 23 | 21.8 | 27.3 µM | 17.7 µM | 16 µM | 9.13 | 10.1 | 14.6 | 11.2 | 5.81 | 8.35 | 8.87 | 10.3 | 26.6 µM | 10.4 | 22.5 µM | – | –
3 | NC(=O)c1cc(Br)cc(C2CCCCC2)c1O | 25 µM | 29.8 | – | 46.3 | 20.3 µM | 30.8 µM | 24.4 µM | 11.4 | 15.5 | – | 20.9 | 6.15 | 15.3 | 11.8 | 14.7 | 28.8 µM | 16.3 | 30.1 µM | 13.6 | 26.4 µM
4 | COc1ccc(C(N)=O)cc1N=NN(C)C | > 100 µM | > 100 | > 100 | > 100 | > 100 µM | > 100 µM | > 100 µM | – | – | – | – | – | – | – | – | – | – | > 100 µM | – | –
5 | C=C=C(CC)C(C(=O)OC)N(CC)CC (stereo not drawn) | > 100 µM | > 100 | – | > 100 | > 100 µM | > 100 µM | > 100 µM | – | – | – | – | – | – | – | – | – | – | > 100 µM | – | –
6 | COc1ccc2c(c1OC)C1=C(C2=O)c2cc3c(cc2CCN1)OCO3 | > 100 µM | 47.5 | 75.5 | 53.9 | 83 µM | > 100 µM | > 100 µM | – | – | – | – | – | – | – | – | – | – | > 100 µM | – | –
7 | COc1cc2noc(-c3ccccc3)c2cc1OC | > 100 µM | > 100 | > 100 | > 100 | 92.2 µM | – | > 100 µM | – | – | – | – | – | – | – | – | – | – | > 100 µM | – | –
8 | CN1NC2(CCCCC2)ON=C1c1ccccc1 | > 100 µM | > 100 | – | > 100 | > 100 µM | > 100 µM | > 100 µM | – | – | – | – | – | – | – | – | – | – | > 100 µM | – | –
9 | Cc1sc(C)c(Cc2c(C)sc(C)c2CCl)c1CCl | > 100 µM | > 100 | – | > 100 | > 100 µM | > 100 µM | > 100 µM | > 100 | > 100 | – | > 100 | > 100 | > 100 | > 100 | > 100 | > 100 µM | > 100 | > 100 µM | > 100 | > 100 µM
10 | COCC(=O)CP(=O)(OC)OC | > 100 µM | > 100 | – | > 100 | > 100 µM | > 100 µM | > 100 µM | – | – | – | – | – | – | – | – | – | – | > 100 µM | – | –
11 | ClC(Cl)c1nc(-c2cccnc2)n2nc(-c3ccccc3)cc2n1 | 5.76 µM | 5.3 | 2.15 | 7.19 | 5.51 µM | 2.9 µM | > 100 µM | 2.28 | 0.666 | 0.639 | 2.18 | 1.73 | 0.62 | 3.05 | 1.34 | 2.82 µM | 2.39 | 6.08 µM | – | –
12 | O=C(O)/C(=C/c1c(O)ccc2ccccc12)c1csc(-c2nc(/C(=C\c3c(O)ccc4ccccc34)C(=O)O)cs2)n1 | 26.3 µM | 59 | 32.4 | 26.4 | – | 27.1 µM | 26.8 µM | – | – | – | – | – | – | – | – | – | – | 40.9 µM | – | –
13 | COc1c(C(=O)O)oc2c(OC)cccc12 | > 100 µM | > 100 | > 100 | > 100 | – | > 100 µM | > 100 µM | – | – | – | – | – | – | – | – | – | – | > 100 µM | – | –
14 | COc1cc2c3c(c1)c1cc(OC)c(OC)cc1c[n+]3CC2 | 3.3 µM and 3.8 µM | > 100 | – | > 100 | 50 µM and > 100 µM | 45.6 µM and > 100 µM | 50 µM and > 100 µM | 0.351 | 26.6 | – | > 100 | > 100 | – | 56.2 | 44.2 | 50 µM and > 100 µM | 15.9 | 50 µM and 64.7 µM | 7.23 | 22.7 µM and 55.2 µM
15 | CN1c2ccccc2N(C)C2C1N(C)c1ccccc1N2C (stereo not drawn) | 46.6 µM | > 100 | 30.9 | 7 | > 100 µM | 74.7 µM | > 100 µM | – | – | – | – | – | – | – | – | – | – | > 100 µM | – | –
16 | CN1CCCN(C)C1c1cc([N+](=O)[O-])ccc1O | > 100 µM | > 100 | – | 61.4 | > 100 µM | > 100 µM | > 100 µM | – | – | – | – | – | – | – | – | > 100 µM | – | 61.3 µM | – | > 100 µM
17 | O=c1cc2ccccc2nn1Cc1ccccc1Cl | > 100 µM | > 100 | > 100 | – | > 100 µM | > 100 µM | > 100 µM | – | – | – | – | – | – | – | – | – | – | > 100 µM | – | –
18 | Cc1nc2c(n1C(C)(C)C)C(=O)c1ccccc1C2=O | > 100 µM | > 100 | > 100 | > 100 | – | > 100 µM | > 100 µM | – | – | – | – | – | – | – | – | – | – | > 100 µM | – | –
19 | CC1(C)OC(=O)C=C([O-])O1.CC1(C)OC(=O)C=C([O-])O1.O=S(=O)([O-])c1ccc([O-])c2ncccc12.O=S(=O)([O-])c1ccc([O-])c2ncccc12.[Ti+4] | > 100 µM | > 100 | – | > 100 | > 100 µM | > 100 µM | > 100 µM | 52 | > 100 | – | 34.1 | > 100 | > 100 | > 100 | – | – | > 100 | > 100 µM | – | –
20 | CC(C)c1ccc(/C(C(=O)O)=C(\O)C(=O)O)cc1 | > 100 µM | > 100 | – | > 100 | > 100 µM | > 100 µM | > 100 µM | – | – | – | – | – | – | – | – | > 100 µM | – | > 100 µM | – | > 100 µM
